Measured values reported in patent US20240115521A1, “COMPOUNDS FOR THE TREATMENT OF MYCOBACTERIAL DISEASES” (priority 2022, published 2024).

Legend:
[1] = Human liver microsome assay; format: in vitro ADME; settings: for half-life: human liver microsomes; for Stability in human liver microsomal studies: result in words
Text: (§1) Because the murine model will be used for initial drug efficacy studies and our goal is to develop drugs for human use, in vitro liver microsomal studies we performed using both mouse and human liver microsomes.

intracellular BCG = assay: microbe, parasite or virus in culture; format: cell-based; settings: Mycobacterium tuberculosis variant bovis BCG, read-out: Activity on intracellular BCG (% inhibition)
intracellular Mtb = assay: Inhibition of Mtb growth inside primary human monocytes (3H-Uridine); format: cell-based; settings: Mycobacterium tuberculosis, Monocyte, all drugs tested at 20 μM
Procedure: FIGS. 1A & 1B show the structure and anti-mycobacterial activity of select troponoids. Shown are the structures (FIG. 1A) and calculated percent inhibitions of M. tuberculosis (Mtb) growth inside primary human monocytes by 4 selected troponoids (FIG. 1B).
Numerous troponoids have been synthesized and screened on Mtb and MAC and identified three with activities at a concentration of ≤5 μM. […] Briefly, primary monocytes were infected with mycobacteria (Mtb) for 4 hours, then co-cultured with indicated troponoids (2.5-20 μM) for 3 days. Then mammalian cells were lysed with saponin and residual mycobacteria quantified via ^3H-Uridine as previously described (Abate et al. 2015).

[2] = Mouse liver microsome stability; format: in vitro ADME; settings: result in words
Text: as §1

[3] = Caco2 in vitro permeability assay; settings: human, Caco-2
Caco2 = Caco2 in vitro permeability assay; settings: for Caco2 PappA > B: apical to basolateral; for Caco2 PappB > A: basolateral to apical; for GI absorption by Caco-2 in vitro testing: result in words

In the case of CC(C)c1nc(CN(C)C(=O)N[C@H](C(=O)N[C@@H](Cc2ccccc2)C[C@H](O)[C@H](Cc2ccccc2)NC(=O)OCc2cncs2)C(C)C)cs1 [Ritonavir, reference compound], the half-life [1] was < 5 min.
Cc1ccc(Sc2cccc(O)c(=O)c2O)cc1 [#838] gave an inhibition at 20 µM (intracellular BCG) of 29.3%.
Compound COc1ccc(-c2ccccc(N)c2=O)cc1 [#762] has an inhibition at 20 µM (intracellular BCG) of 10.8%.
For O=c1c(S)ccccc1-c1ccccc1 [#844], the inhibition at 20 µM (intracellular BCG) was 19.1%.
CCCCCCSc1ccc(SCCCCCC)c(O)c(=O)c1O [#841] gave an inhibition at 20 µM (intracellular BCG) of 83.5%, an inhibition at 20 µM (intracellular Mtb) of 91.5% and a half-life [1] of 7 min. For the same compound, the “Stability in human liver microsomal studies” value [1] was “stable”, the “Stability in mice liver microsomal studies” value [2] was “stable” and the efflux ratio [3] was 1.7. For the same compound, the “Caco2 PappA > B” value (Caco2) was 3.08E−06 sec*cm^2, the “Caco2 PappB > A” value (Caco2) was 5.18E−06 sec*cm^2 and the “GI absorption by Caco-2 in vitro testing” value (Caco2) was “good GI absorption”.
For CCS(=O)(=O)N1CCN(C(=O)c2cc(O)c(=O)c(O)cc2C)CC1 [#802], the inhibition at 20 µM (intracellular BCG) was 0%.
With CCCCSc1ccc(SCCCC)c(O)c(=O)c1O [#694] the inhibition at 20 µM (intracellular BCG) was 91.8%, the inhibition at 20 µM (intracellular Mtb) was 86.5% and the half-life [1] was 9.8 min. For the same compound, the “Stability in human liver microsomal studies” value [1] was “stable”, the “Stability in mice liver microsomal studies” value [2] was “stable” and the efflux ratio [3] was 19. For the same compound, the “Caco2 PappA > B” value (Caco2) was 5.83E−06 sec*cm^2, the “Caco2 PappB > A” value (Caco2) was 1.11E−04 sec*cm^2 and the “GI absorption by Caco-2 in vitro testing” value (Caco2) was “good GI absorption”.
Work on O=C1Nc2ccccc2CCC1SC1CCc2ccccc2NC1=O (stereo not shown) [#846] yielded an inhibition at 20 µM (intracellular BCG) of 0%.
For COc1cc(-c2ccccc(S)c2=O)cc(OC)c1OC [#842], the inhibition at 20 µM (intracellular BCG) was 25%.
O=c1c(O)cccc(S)c1O [#701] gave an inhibition at 20 µM (intracellular BCG) of 38.8%.
Compound Cc1cc(O)c(=O)c(O)cc1C(=O)N1CCSC1 [#712] has an inhibition at 20 µM (intracellular BCG) of 32.1%.
CCn1cc(C(=O)O)c(=O)c2cc(F)c(N3CCN(c4cccccc4=O)CC3)cc21 [#764] showed an inhibition at 20 µM (intracellular BCG) of 14.5%.
In the case of O=c1cccccc1N1CCCC1 [#766], the inhibition at 20 µM (intracellular BCG) was 14%.
Work on Cc1ccc(S(=O)(=O)c2cccc(O)c(=O)c2O)cc1 [#697] yielded an inhibition at 20 µM (intracellular BCG) of 0%.
Work on Cc1ccc(C(=O)Oc2cc(C(C)C)cccc2=O)cc1 [#847] yielded an inhibition at 20 µM (intracellular BCG) of 28.8%.
O=c1cccccc1N1CCOCC1 [#765] showed an inhibition at 20 µM (intracellular BCG) of 24.3%.
Compound CCCCCCS(=O)(=O)c1cccc(O)c(=O)c1O [#699] has an inhibition at 20 µM (intracellular BCG) of 0%.
With CCCCCCSc1cccc(O)c(=O)c1O [#840] the inhibition at 20 µM (intracellular BCG) was 74.7%, the inhibition at 20 µM (intracellular Mtb) was 89.4% and the half-life [1] was > 30 min. The “Stability in human liver microsomal studies” value [1] was “stable”, the “Stability in mice liver microsomal studies” value [2] was “stable” and the efflux ratio [3] was 14.6. The “Caco2 PappA > B” value (Caco2) was 1.45E−05 sec*cm^2, the “Caco2 PappB > A” value (Caco2) was 2.11E−04 sec*cm^2 and the “GI absorption by Caco-2 in vitro testing” value (Caco2) was “good GI absorption”.
With CC(=O)CC(c1ccccc1)c1c(O)c2ccccc2oc1=O (stereo not shown) [Warfarin, reference compound] the “Caco2 PappA > B” value (Caco2) was 9.37E−05 sec*cm^2 and the “Caco2 PappB > A” value (Caco2) was 2.70E−04 sec*cm^2.
Compound CCCCSc1cccc(O)c(=O)c1O [#693] has an inhibition at 20 µM (intracellular BCG) of 89.2%.
COc1ccc(-c2cc(=O)c3c(O)cc(O)cc3o2)cc1 [#861] gave an inhibition at 20 µM (intracellular BCG) of 0%.
COc1cc(-c2ccccc(SSc3ccccc(-c4cc(OC)c(OC)c(OC)c4)c3=O)c2=O)cc(OC)c1OC [#843] gave an inhibition at 20 µM (intracellular BCG) of 26.5%.
In the case of O=C1Nc2ccccc2CCC1S (stereo not shown) [#845], the inhibition at 20 µM (intracellular BCG) was 9%.
O=C(O)COc1cc(O)c2c(=O)cc(-c3ccccc3)oc2c1 [#859] gave an inhibition at 20 µM (intracellular BCG) of 11.3%.
